This is an account of results in patent US20210070748A1, “INHIBITORS OF BRUTONS TYROSINE KINASE” (Pharmacyclics LLC, priority 2015, published 2021).

What all share (type): biochemical
For one experiment, the target named is T1, JAK3 (Homo sapiens, UniProt P52333).
T1 sequence (P52333 1-1124): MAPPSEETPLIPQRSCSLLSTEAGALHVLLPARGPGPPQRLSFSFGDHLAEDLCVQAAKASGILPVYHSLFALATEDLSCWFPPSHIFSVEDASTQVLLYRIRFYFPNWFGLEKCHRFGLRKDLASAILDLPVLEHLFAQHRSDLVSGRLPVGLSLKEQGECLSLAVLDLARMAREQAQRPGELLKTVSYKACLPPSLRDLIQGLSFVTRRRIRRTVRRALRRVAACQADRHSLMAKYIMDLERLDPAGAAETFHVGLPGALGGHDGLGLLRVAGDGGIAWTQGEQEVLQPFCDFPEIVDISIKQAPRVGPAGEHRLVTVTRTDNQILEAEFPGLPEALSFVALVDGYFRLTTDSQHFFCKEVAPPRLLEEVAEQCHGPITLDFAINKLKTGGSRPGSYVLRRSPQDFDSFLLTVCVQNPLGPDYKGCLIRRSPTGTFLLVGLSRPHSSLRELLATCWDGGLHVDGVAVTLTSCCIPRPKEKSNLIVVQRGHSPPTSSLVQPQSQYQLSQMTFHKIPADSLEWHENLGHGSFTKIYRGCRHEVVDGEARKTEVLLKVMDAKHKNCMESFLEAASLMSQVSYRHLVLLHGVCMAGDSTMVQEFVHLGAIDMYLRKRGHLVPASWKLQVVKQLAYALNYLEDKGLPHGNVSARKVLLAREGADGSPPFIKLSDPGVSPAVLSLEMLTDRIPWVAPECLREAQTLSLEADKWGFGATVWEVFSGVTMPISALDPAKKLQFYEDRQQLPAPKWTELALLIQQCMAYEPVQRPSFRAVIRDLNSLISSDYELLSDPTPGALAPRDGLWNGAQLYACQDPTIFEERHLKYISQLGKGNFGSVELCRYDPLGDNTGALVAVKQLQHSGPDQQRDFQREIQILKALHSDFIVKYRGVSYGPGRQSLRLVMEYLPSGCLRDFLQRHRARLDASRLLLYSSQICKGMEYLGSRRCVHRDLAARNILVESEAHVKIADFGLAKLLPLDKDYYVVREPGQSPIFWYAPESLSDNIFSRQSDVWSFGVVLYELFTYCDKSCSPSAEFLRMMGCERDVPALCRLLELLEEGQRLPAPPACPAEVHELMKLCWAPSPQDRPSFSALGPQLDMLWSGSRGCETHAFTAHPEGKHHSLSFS
The experiment is described as follows: Inhibition of a panel of kinases, in vitro HotSpot kinase assay: JAK3. To be noted: 1 μM ATP, read-out: JAK3 (IC50).

Another experiment deals with LCK (Homo sapiens, UniProt P06239). Put plainly: Inhibition of a panel of kinases, in vitro HotSpot kinase assay: LCK. To be noted: 1 μM ATP, read-out: LCK (IC50).
In another experiment the target is T2, BTK-WT (Homo sapiens, UniProt Q06187).
T2 construct: purified from insect cells as a full-length construct containing an N-terminal 6X-His tag; His6 (N); made in house; host or cells: insect cells (baculovirus Sf21 in Method B)
The experiment is described as follows: Btk in vitro inhibitory activity (one of Method A TR-FRET, Method B electrophoretic mobility shift, Method C radiometric filter binding). To be noted: read-out: BTK-WT (IC50).

Structures can show the parent of a compound that is named as a salt. Where two headings read alike, the source gives them in different places. Where only a bound is given, the exact number is not on record here.

T2 sequence (Q06187 whole entry): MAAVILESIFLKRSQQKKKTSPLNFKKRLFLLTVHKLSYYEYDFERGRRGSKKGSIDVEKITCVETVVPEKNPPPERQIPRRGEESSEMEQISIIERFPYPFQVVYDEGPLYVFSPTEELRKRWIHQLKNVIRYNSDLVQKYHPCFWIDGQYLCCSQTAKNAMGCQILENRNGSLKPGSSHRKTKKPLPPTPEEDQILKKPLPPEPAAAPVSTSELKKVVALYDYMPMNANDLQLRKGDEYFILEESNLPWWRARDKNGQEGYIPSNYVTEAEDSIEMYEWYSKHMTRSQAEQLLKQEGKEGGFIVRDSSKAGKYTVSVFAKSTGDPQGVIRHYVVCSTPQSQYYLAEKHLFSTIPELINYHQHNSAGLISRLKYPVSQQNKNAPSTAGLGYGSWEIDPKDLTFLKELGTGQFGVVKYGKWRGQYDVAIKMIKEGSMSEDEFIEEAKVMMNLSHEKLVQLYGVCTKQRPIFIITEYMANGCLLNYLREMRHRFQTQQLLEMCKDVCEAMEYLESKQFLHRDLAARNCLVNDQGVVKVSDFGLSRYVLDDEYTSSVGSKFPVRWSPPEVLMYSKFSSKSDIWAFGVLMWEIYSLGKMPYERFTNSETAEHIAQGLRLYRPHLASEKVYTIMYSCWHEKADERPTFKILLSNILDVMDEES
Sequence of LCK (P06239 whole entry): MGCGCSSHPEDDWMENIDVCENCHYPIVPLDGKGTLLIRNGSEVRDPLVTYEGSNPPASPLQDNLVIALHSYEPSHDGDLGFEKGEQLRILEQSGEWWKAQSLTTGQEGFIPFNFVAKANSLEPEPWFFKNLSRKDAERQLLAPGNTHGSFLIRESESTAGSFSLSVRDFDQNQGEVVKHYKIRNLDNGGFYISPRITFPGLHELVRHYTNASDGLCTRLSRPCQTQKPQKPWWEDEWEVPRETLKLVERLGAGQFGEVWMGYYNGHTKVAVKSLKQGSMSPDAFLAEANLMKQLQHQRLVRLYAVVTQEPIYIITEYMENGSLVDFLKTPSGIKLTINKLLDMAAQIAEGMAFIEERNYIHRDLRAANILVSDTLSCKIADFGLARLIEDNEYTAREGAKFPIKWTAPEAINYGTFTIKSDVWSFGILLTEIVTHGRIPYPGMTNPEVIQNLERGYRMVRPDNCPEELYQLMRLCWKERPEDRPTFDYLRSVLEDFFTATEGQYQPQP

For the molecule `CN(C)c1ccc(C(=O)N[C@@H]2CCCN(c3cnc(C(N)=O)c(Nc4ccc(S(C)(=O)=O)cc4)n3)C2)cc1` [Example A-44, 5-[(3R)-3-[4-(dimethylamino)benzamido]piperidin-1-yl]-3-[(4-methanesulfonylphenyl)amino]pyrazine-2-carboxamide], the IC50 at JAK3 (Table 10, Formula A-I) was 1000 to 10000 nM; on LCK (Table 10, Formula A-I), greater than 10000 nM; on BTK-WT (Table 10, Formula A-I), no more than 100 nM.
In the same order, the values of `Cc1cc(Nc2nc(N3CCC[C@@H](NC(=O)c4ccc(C5CC5)cc4)C3)cnc2C(N)=O)sn1` [Example A-32, 5-[(3R)-3-(4-cyclopropylbenzamido)piperidin-1-yl]-3-[(3-methyl-1,2-thiazol-5-yl)amino]pyrazine-2-carboxamide] are 1000 to 10000 nM, greater than 10000 nM and no more than 100 nM.
On to `Cc1cc(Nc2nc(N3CCC[C@@H](NC(=O)c4ccncc4)C3)cnc2C(N)=O)sn1` [Example A-29, 3-[(3-methyl-1,2-thiazol-5-yl)amino]-5-[(3R)-3-(pyridine-4-amido)piperidin-1-yl]pyrazine-2-carboxamide], for which the IC50 on JAK3 (Table 10, Formula A-I) is 100 to 1000 nM; at LCK (Table 10, Formula A-I), 1000 to 10000 nM; at BTK-WT (Table 10, Formula A-I) it was no more than 100 nM.
In the same order, the values of `Cc1cc(Nc2nc(N3CCC[C@@H](NC(=O)c4ccc(N(C)C)nc4)C3)cnc2C(N)=O)sn1` [Example A-34, 5-[(3R)-3-[6-(dimethylamino)pyridine-3-amido]piperidin-1-yl]-3-[(3-methyl-1,2-thiazol-5-yl)amino]pyrazine-2-carboxamide] are 1000 to 10000 nM, 1000 to 10000 nM and no more than 100 nM.
`Cc1cc(Nc2nc(NC3CCC(NC(=O)c4ccc(N(C)C)cc4)CC3)cnc2C(N)=O)sn1` (stereo not drawn) [Example B-5, 5-({4-[4-(dimethylamino)benzamido]cyclohexyl}amino)-3-[(3-methyl-1,2-thiazol-5-yl)amino]pyrazine-2-carboxamide]: the IC50 was less than 100 nM at JAK3 (Table 11, Formula B-I); 100 to 1000 nM at LCK (Table 11, Formula B-I); no more than 100 nM on BTK-WT (Table 11, Formula B-I).
Consider `Cc1cc(Nc2nc(N[C@H]3CCN(C(=O)N(C)C)C3)cnc2C(N)=O)sn1` [Example C-10, 5-{[(3S)-1-(dimethylcarbamoyl)pyrrolidin-3-yl]amino}-3-[(3-methyl-1,2-thiazol-5-yl)amino]pyrazine-2-carboxamide], for which the half-maximal inhibitory concentration (IC50) is 100 to 1000 nM on JAK3 (Table 12, Formula C-I); 100 to 1000 nM at LCK (Table 12, Formula C-I); no more than 100 nM at BTK-WT (Table 12, Formula C-I).
Consider `Cc1cc(Nc2nc(N3CCC[C@@H](NC(=O)c4cccc(N(C)C)c4)C3)cnc2C(N)=O)sn1` [Example A-27, (5-[(3R)-3-[3-(dimethylamino)benzamido]piperidin-1-yl]-3-[(3-methyl-1,2-thiazol-5-yl)amino]pyrazine-2-carboxamide hydrochloride], for which the IC50 at JAK3 (Table 10, Formula A-I) is 1000 to 10000 nM; on LCK (Table 10, Formula A-I), 100 to 1000 nM; at BTK-WT (Table 10, Formula A-I), no more than 100 nM.
On to `Cc1cc(Nc2nc(N(C)CC3CCN(C(=O)N(C)C)CC3)cnc2C(N)=O)sn1` [Example C-14, 5-({[1-(dimethylcarbamoyl)piperidin-4-yl]methyl}(methyl)amino)-3-[(3-methyl-1,2-thiazol-5-yl)amino]pyrazine-2-carboxamide], for which the IC50 lay in the range of 1000 to 10000 nM on JAK3 (Table 12, Formula C-I); 1000 to 10000 nM on LCK (Table 12, Formula C-I); 100 to 1000 nM at BTK-WT (Table 12, Formula C-I).
With `Cc1cc(Nc2nc(N3CCC(CNC(=O)c4ccc(N(C)C)cc4)CC3)cnc2C(N)=O)sn1` [Example A-77, 5-[4-({[4-(dimethylamino)phenyl]formamido}methyl)piperidin-1-yl]-3-[(3-methyl-1,2-thiazol-5-yl)amino]pyrazine-2-carboxamide], the IC50 was less than 100 nM at JAK3 (Table 10, Formula A-I); 100 to 1000 nM at LCK (Table 10, Formula A-I); no more than 100 nM at BTK-WT (Table 10, Formula A-I).
On to `Cc1cc(Nc2nc(N[C@@H]3CCCN(C(=O)c4ccc(N(C)C)cc4)C3)cnc2C(N)=O)sn1` [Example C-7, 5-{[(3R)-1-[4-(dimethylamino)benzoyl]piperidin-3-yl]amino}-3-[(3-methyl-1,2-thiazol-5-yl)amino]pyrazine-2-carboxamide hydrochloride], for which the IC50 at JAK3 (Table 12, Formula C-I) is greater than 10000 nM; at LCK (Table 12, Formula C-I), greater than 10000 nM; at BTK-WT (Table 12, Formula C-I) it was greater than 10000 nM.
`Cc1cc(Nc2cc(N3CCC[C@@H](NC(=O)c4ccccc4)C3)cnc2C(N)=O)sn1` [Example A-61, 5-[(3R)-3-benzamidopiperidin-1-yl]-3-[(3-methyl-1,2-thiazol-5-yl)amino]pyridine-2-carboxamide]: the IC50 is 1000 to 10000 nM at JAK3 (Table 10, Formula A-I); 100 to 1000 nM on LCK (Table 10, Formula A-I); 100 to 1000 nM at BTK-WT (Table 10, Formula A-I).
For the molecule `C[C@H]1[C@@H](NC(=O)N(C)C)CCCN1c1cnc(C(N)=O)c(Nc2ccc3ncccc3c2)n1` [Example A-60, 5-[(2S,3S)-3-[(dimethylcarbamoyl)amino]-2-methylpiperidin-1-yl]-3-[(quinolin-6-yl)amino]pyrazine-2-carboxamide], the IC50 was 1000 to 10000 nM at JAK3 (Table 10, Formula A-I); greater than 10000 nM on LCK (Table 10, Formula A-I); 100 to 1000 nM on BTK-WT (Table 10, Formula A-I).
In the same order, the values of `Cc1cc(Nc2nc(N3CC[C@@H](NC(=O)c4ccccc4)C3)cnc2C(N)=O)sn1` [Example A-50, 5-[(3R)-3-benzamidopyrrolidin-1-yl]-3-[(3-methyl-1,2-thiazol-5-yl)amino]pyrazine-2-carboxamide] are greater than 10000 nM, 1000 to 10000 nM and 100 to 1000 nM.
In the same order, the values of `Cc1cc(Nc2nc(N3CCC(CNC(=O)N(C)C)CC3)cnc2C(N)=O)sn1` [Example A-75, 5-(4-{[(dimethylcarbamoyl)amino]methyl}piperidin-1-yl)-3-[(3-methyl-1,2-thiazol-5-yl)amino]pyrazine-2-carboxamide] are less than 100 nM, 100 to 1000 nM and no more than 100 nM.
For `Cc1cc(Nc2nc(N3CCC[C@@H](N4CCN(c5cccc(Cl)c5)C4=O)C3)cnc2C(N)=O)sn1` [Example A-52, 5-[(3R)-3-[3-(3-chlorophenyl)-2-oxoimidazolidin-1-yl]piperidin-1-yl]-3-[(3-methyl-1,2-thiazol-5-yl)amino]pyrazine-2-carboxamide], the IC50 at JAK3 (Table 10, Formula A-I) was 100 to 1000 nM; on LCK (Table 10, Formula A-I), less than 100 nM; at BTK-WT (Table 10, Formula A-I) it was no more than 100 nM.
In the same order, the values of `Cc1cc(Nc2nc(N3CCC[C@@H](NC(=O)c4ccc(N5CCCC5)cc4)C3)cnc2C(N)=O)sn1` [Example A-26, 3-[(3-methyl-1,2-thiazol-5-yl)amino]-5-[(3R)-3-[4-(pyrrolidin-1-yl)benzamido]piperidin-1-yl]pyrazine-2-carboxamide] are 1000 to 10000 nM, greater than 10000 nM and no more than 100 nM.
Consider `Cc1cc(Nc2nc(N3CCC[C@@H](NC(=O)NC4CCCCC4)C3)cnc2C(N)=O)sn1` [Example A-13, 5-[(3R)-3-[(cyclohexylcarbamoyl)amino]piperidin-1-yl]-3-[(3-methyl-1,2-thiazol-5-yl)amino]pyrazine-2-carboxamide], for which the IC50 at JAK3 (Table 10, Formula A-I) is 1000 to 10000 nM; at LCK (Table 10, Formula A-I), 100 to 1000 nM; on BTK-WT (Table 10, Formula A-I), no more than 100 nM.
In the same order, the values of `Cc1cc(Nc2nc(N3CCC[C@@H](NC(=O)Nc4ncc(C)s4)C3)cnc2C(N)=O)sn1` [Example A-12] are 1000 to 10000 nM, 1000 to 10000 nM and 100 to 1000 nM.
In the case of `CN1CCN(C(=O)c2ccc(Nc3nc(N[C@H]4CC[C@H](NC(=O)c5ccc(C6CC6)cc5F)CC4)cnc3C(N)=O)cc2)CC1` [Example B-14, 5-((1r,4r)-4-(4-cyclo-propyl-2-fluoro-benzamido)cyclohexyl-amino)-3-(4-(4-methylpiperazine-1-carbonyl)phenylamino) pyrazine-2-carboxamide], the half-maximal inhibitory concentration (IC50) at JAK3 (Table 11, Formula B-I) was 100 to 1000 nM; at LCK (Table 11, Formula B-I) it was 100 to 1000 nM; on BTK-WT (Table 11, Formula B-I), no more than 100 nM.
